According to PubChem BioAssay AID1259407 (Chemical Carcinogenesis Research Information System (CCRIS), 2018):
Activity calls are given as the source filed them. No rule for the calls is given here.

System: CCRIS mutagenicity, Ames/micronucleus/aberration tests
Test: CCRIS mutagenicity studies
Settings: Test System: AMES SALMONELLA TYPHIMURIUM
[1] = Strain/Indicator: TA98, Metabolic Activation: NONE, Method: PREINCUBATION
[2] = Strain/Indicator: TA100, Metabolic Activation: NONE, Method: PREINCUBATION
[3] = Strain/Indicator: TA100, Metabolic Activation: NONE, Method: STANDARD PLATE
[4] = Strain/Indicator: TA97, Metabolic Activation: HAMSTER, LIVER, S-9, AROCLOR 1254 (10 OR 30%), Method: PREINCUBATION
[5] = Strain/Indicator: TA97, Metabolic Activation: NONE, Method: PREINCUBATION
[6] = Strain/Indicator: TA97, Metabolic Activation: RAT, LIVER, S-9, AROCLOR 1254 (10 OR 30%), Method: PREINCUBATION
[7] = Strain/Indicator: TA98, Metabolic Activation: HAMSTER, LIVER, S-9, AROCLOR 1254 (10 OR 30%), Method: PREINCUBATION
[8] = Strain/Indicator: TA98, Metabolic Activation: RAT, LIVER, S-9, AROCLOR 1254 (10 OR 30%), Method: PREINCUBATION
[9] = Strain/Indicator: TA100, Metabolic Activation: HAMSTER, LIVER, S-9, AROCLOR 1254 (10 OR 30%), Method: PREINCUBATION
[10] = Strain/Indicator: TA100, Metabolic Activation: RAT, LIVER, S-9, AROCLOR 1254 (10 OR 30%), Method: PREINCUBATION
[11] = Strain/Indicator: TA1535, Metabolic Activation: HAMSTER, LIVER, S-9, AROCLOR 1254 (10 OR 30%), Method: PREINCUBATION
[12] = Strain/Indicator: TA1535, Metabolic Activation: NONE, Method: PREINCUBATION
[13] = Strain/Indicator: TA1535, Metabolic Activation: RAT, LIVER, S-9, AROCLOR 1254 (10 OR 30%), Method: PREINCUBATION

Which mutagenic call [1] does the source give for `N[C@@H](CSCc1ccccc1)C(=O)O` here?
Its mutagenic call is “inactive; negative”.

And the mutagenic call (Strain/Indicator: TA98, Metabolic Activation: RAT, LIVER OR KIDNEY, MICROSOMES, Method: PREINCUBATION)?
Its mutagenic call is “inactive; negative”.

And the mutagenic call [2]?
Its mutagenic call is “inactive; negative”.

And the mutagenic call (Strain/Indicator: TA100, Metabolic Activation: RAT, LIVER OR KIDNEY, MICROSOMES, Method: PREINCUBATION)?
The mutagenic call was “inactive; negative”.

And the mutagenic call (Strain/Indicator: TA102, Metabolic Activation: NONE, Method: PREINCUBATION)?
Its mutagenic call is “inactive; negative”.

And the mutagenic call (Strain/Indicator: TA102, Metabolic Activation: RAT, LIVER OR KIDNEY, MICROSOMES, Method: PREINCUBATION)?
Its mutagenic call is “inactive; negative”.

And the mutagenic call (Strain/Indicator: TA2638, Metabolic Activation: NONE, Method: PREINCUBATION)?
The mutagenic call was “inactive; negative”.

And the mutagenic call (Strain/Indicator: TA2638, Metabolic Activation: RAT, LIVER OR KIDNEY, MICROSOMES, Method: PREINCUBATION)?
Its mutagenic call is “inactive; negative”.

What does the source list for `CC(Br)C(=O)Nc1ccccc1` (configuration not stated)?
mutagenic call (Strain/Indicator: TA100, Metabolic Activation: MOUSE, LIVER, S-9, AROCLOR 1254, Method: STANDARD PLATE): active; positive; mutagenic call [3]: inactive; negative

Which mutagenic call [1] does the source give for `COC(=O)c1cc(Cc2ccc(N)c(C(=O)OC)c2)ccc1N` here?
Its mutagenic call is “inactive; negative”.

And the mutagenic call (Strain/Indicator: TA98, Metabolic Activation: RAT, LIVER, S-9, PCB, Method: PREINCUBATION)?
The mutagenic call was “active; positive”.

What about the mutagenic call [2] of the same compound?
The mutagenic call was “inactive; negative”.

And the mutagenic call (Strain/Indicator: TA100, Metabolic Activation: RAT, LIVER, S-9, PCB, Method: PREINCUBATION)?
Its mutagenic call is “active; positive”.

With `CCC/C=C(/C=O)CC` as the compound, how does the mutagenic call [4] read?
The mutagenic call was “inactive; negative”.

And the mutagenic call [5]?
Its mutagenic call is “inactive; negative”.

And the mutagenic call [6]?
Its mutagenic call is “inactive; negative”.

And the mutagenic call [7]?
The mutagenic call was “inactive; negative”.

And the mutagenic call [1]?
The mutagenic call was “inactive; negative”.

What about the mutagenic call [8] of the same compound?
The mutagenic call was “inactive; negative”.

What about the mutagenic call [9] of the same compound?
Its mutagenic call is “inactive; negative”.

And the mutagenic call [2]?
Its mutagenic call is “inactive; negative”.

And the mutagenic call [10]?
Its mutagenic call is “inactive; negative”.

And the mutagenic call [11]?
Its mutagenic call is “inactive; negative”.

What about the mutagenic call [12] of the same compound?
The mutagenic call was “inactive; negative”.

What about the mutagenic call [13] of the same compound?
The mutagenic call was “inactive; negative”.

What does the source list for `CN(C(=O)CN(CCO)CC(=O)N(C)C(C)(C)Cc1ccccc1)C(C)(C)Cc1ccccc1`?
mutagenic call [4]: inactive; negative; mutagenic call [5]: inactive; negative; mutagenic call [6]: inactive; negative; mutagenic call [7]: inactive; negative; mutagenic call [1]: inactive; negative; mutagenic call [8]: inactive; negative; mutagenic call [9]: inactive; negative; mutagenic call [2]: inactive; negative; mutagenic call [10]: inactive; negative; mutagenic call [11]: inactive; negative; mutagenic call [12]: inactive; negative; mutagenic call [13]: inactive; negative

Which results are given for `O=C(c1ccccc1)C1OC1c1ccc(Oc2ccccc2)cc1` (configuration not stated)?
mutagenic call (Strain/Indicator: TA98, Metabolic Activation: NONE, Method: STANDARD PLATE): inactive; negative; mutagenic call (Strain/Indicator: TA98, Metabolic Activation: RAT, LIVER, S-9, AROCLOR 1254, Method: STANDARD PLATE): inactive; negative; mutagenic call [3]: inactive; negative; mutagenic call (Strain/Indicator: TA100, Metabolic Activation: RAT, LIVER, S-9, AROCLOR 1254, Method: STANDARD PLATE): inactive; negative

For `CCCCCCCCCCCC[S][Sn]([CH2]CCC)([CH2]CCC)[S]CCCCCCCCCCCC`, which mutagenic call (Strain/Indicator: TA97, Metabolic Activation: HAMSTER, LIVER, S-9, AROCLOR 1254 (10%), Method: PREINCUBATION) is on record?
The mutagenic call was “inactive; negative”.

And the mutagenic call (Strain/Indicator: TA97, Metabolic Activation: HAMSTER, LIVER, S-9, AROCLOR 1254 (30%), Method: PREINCUBATION)?
The mutagenic call was “inactive; negative”.

And the mutagenic call [5]?
The mutagenic call was “inactive; negative”.

What about the mutagenic call (Strain/Indicator: TA97, Metabolic Activation: RAT, LIVER, S-9, AROCLOR 1254 (10%), Method: PREINCUBATION) of the same compound?
The mutagenic call was “inactive; negative”.

And the mutagenic call (Strain/Indicator: TA97, Metabolic Activation: RAT, LIVER, S-9, AROCLOR 1254 (30%), Method: PREINCUBATION)?
The mutagenic call was “inactive; negative”.

What about the mutagenic call (Strain/Indicator: TA98, Metabolic Activation: HAMSTER, LIVER, S-9, AROCLOR 1254 (10%), Method: PREINCUBATION) of the same compound?
Its mutagenic call is “inactive; negative”.

What about the mutagenic call (Strain/Indicator: TA98, Metabolic Activation: HAMSTER, LIVER, S-9, AROCLOR 1254 (30%), Method: PREINCUBATION) of the same compound?
The mutagenic call was “inactive; negative”.

And the mutagenic call [1]?
Its mutagenic call is “inactive; negative”.

And the mutagenic call (Strain/Indicator: TA98, Metabolic Activation: RAT, LIVER, S-9, AROCLOR 1254 (10%), Method: PREINCUBATION)?
The mutagenic call was “inactive; negative”.

What about the mutagenic call (Strain/Indicator: TA98, Metabolic Activation: RAT, LIVER, S-9, AROCLOR 1254 (30%), Method: PREINCUBATION) of the same compound?
Its mutagenic call is “inactive; negative”.

And the mutagenic call (Strain/Indicator: TA100, Metabolic Activation: HAMSTER, LIVER, S-9, AROCLOR 1254 (10%), Method: PREINCUBATION)?
Its mutagenic call is “inactive; negative”.

What about the mutagenic call (Strain/Indicator: TA100, Metabolic Activation: HAMSTER, LIVER, S-9, AROCLOR 1254 (30%), Method: PREINCUBATION) of the same compound?
Its mutagenic call is “inactive; negative”.

What about the mutagenic call [2] of the same compound?
The mutagenic call was “inactive; negative”.

What about the mutagenic call (Strain/Indicator: TA100, Metabolic Activation: RAT, LIVER, S-9, AROCLOR 1254 (10%), Method: PREINCUBATION) of the same compound?
Its mutagenic call is “inactive; negative”.

And the mutagenic call (Strain/Indicator: TA100, Metabolic Activation: RAT, LIVER, S-9, AROCLOR 1254 (30%), Method: PREINCUBATION)?
The mutagenic call was “inactive; negative”.

What about the mutagenic call (Strain/Indicator: TA1535, Metabolic Activation: HAMSTER, LIVER, S-9, AROCLOR 1254 (10%), Method: PREINCUBATION) of the same compound?
Its mutagenic call is “inactive; negative”.

What about the mutagenic call (Strain/Indicator: TA1535, Metabolic Activation: HAMSTER, LIVER, S-9, AROCLOR 1254 (30%), Method: PREINCUBATION) of the same compound?
Its mutagenic call is “inactive; negative”.

And the mutagenic call [12]?
Its mutagenic call is “inactive; negative”.

And the mutagenic call (Strain/Indicator: TA1535, Metabolic Activation: RAT, LIVER, S-9, AROCLOR 1254 (10%), Method: PREINCUBATION)?
Its mutagenic call is “inactive; negative”.

And the mutagenic call (Strain/Indicator: TA1535, Metabolic Activation: RAT, LIVER, S-9, AROCLOR 1254 (30%), Method: PREINCUBATION)?
Its mutagenic call is “inactive; negative”.
